The source of these data is US9802927B2, “Oxadiazine compounds and methods of use thereof” (Denali Therapeutics, Inc., priority 2015, dated 2017).

One test concerns Aβ42. The test can be described thus: In vitro cell screening assay in H4 cells expressing human APP751: Aβ42 by sandwich ELISA. In kind it is cell-based. The note with it: Homo sapiens, compounds 0.003-10 μM, incubated overnight (16-18 h), sandwich ELISA of supernatant. An outline of the steps:
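H4 neuroglioma cells stably expressing wild-type human APP751, switched to Pro293 medium and treated with compounds (0.003-10 μM, 0.33% DMSO) for 16-18 h at 37 °C. Supernatant Aβ42 quantified by sandwich ELISA (C-terminal capture, 4G8-HRP detection, A450); EC50 by sigmoidal fit normalized to DMSO and DAPT controls.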
(In general: An ELISA detects its analyte on a solid surface through an enzyme-linked reagent.)
Compound `COc1nc(C2=NOC[C@H](c3cc4ccccc4o3)N2)ccc1-n1cnc(C)c1` [Example 4, (R)-5-(Benzofuran-2-yl)-3-(6-methoxy-5-(4-methyl-1H-imidazol-1-yl)pyridin-2-yl)-5,6-dihydro-4H-1,2,4-oxadiazine] returned a 50% effective concentration (EC50) of 38.4 nM.

`COc1nc(C2=NOC[C@H](c3cc4cc(C)ccc4o3)N2)ccc1-n1cnc(C)c1` [Example 10, (R)-3-(6-Methoxy-5-(4-methyl-1H-imidazol-1-yl)pyridin-2-yl)-5-(5-methylbenzofuran-2-yl)-5,6-dihydro-4H-1,2,4-oxadiazine] had an EC50 of 16 nM.

`COc1nc(C2=NOC[C@H](c3cc4ccccc4s3)N2)ccc1-n1cnc(C)c1` [Example 13, (R)-5-(Benzo[b]thiophen-2-yl)-3-(6-methoxy-5-(4-methyl-1H-imidazol-1-yl)pyridin-2-yl)-5,6-dihydro-4H-1,2,4-oxadiazine]: the response was half-maximal at 7.8 nM (EC50).

`COc1nc(C2=NOC[C@H](c3cc4c(C)cccc4o3)N2)ccc1-n1cnc(C)c1` [Example 19, (R)-3-(6-Methoxy-5-(4-methyl-1H-imidazol-1-yl)pyridin-2-yl)-5-(4-methylbenzofuran-2-yl)-5,6-dihydro-4H-1,2,4-oxadiazine] came in with a concentration giving a half-maximal response (EC50) of 11.5 nM.

In turn, `COc1nc(C2=NOC[C@H](c3cc4ccc(C)cc4o3)N2)ccc1-n1cnc(C)c1` [Example 22, (R)-3-(6-Methoxy-5-(4-methyl-1H-imidazol-1-yl)pyridin-2-yl)-5-(6-methylbenzofuran-2-yl)-5,6-dihydro-4H-1,2,4-oxadiazine] gave a concentration giving a half-maximal response (EC50) of 18.4 nM.

The compound `COc1nc(C2=NOC[C@H](c3cc4ccccc4o3)N2C)ccc1-n1cnc(C)c1` [Example 32, (R)-5-(Benzofuran-2-yl)-3-(6-methoxy-5-(4-methyl-1H-imidazol-1-yl)pyridin-2-yl)-4-methyl-5,6-dihydro-4H-1,2,4-oxadiazine] displayed an EC50 of 390 nM.

Staying with this test, now noted: compounds 0.003-10 μM, incubated overnight (16-18 h), sandwich ELISA of supernatant.
For the compound `COc1nc(C2=NOCC(c3ccc(Cl)c(C(F)F)c3)N2)ccc1-n1cnc(C)c1` (single isomer, unassigned; (-)) [Example 270A, (−)-5-(4-chloro-3-(difluoromethyl)phenyl)-3-(6-methoxy-5-(4-methyl-1H-imidazol-1-yl)pyridin-2-yl)-5,6-dihydro-4H-1,2,4-oxadiazine], the EC50 was 418 nM.

`COc1nc(C2=NOCC(c3oc4ccccc4c3C)N2)ccc1-n1cnc(C)c1` (centres unmarked) [Example 16B, 3-(6-methoxy-5-(4-methyl-1H-imidazol-1-yl)pyridin-2-yl)-5-(3-methylbenzofuran-2-yl)-5,6-dihydro-4H-1,2,4-oxadiazine] showed an EC50 of 16.7 nM.

In the case of `COc1nc(C2=NOCC(c3cccc(C(F)(F)F)c3)N2C)ccc1-n1cnc(C)c1` (centres unmarked) [Example 30A, 3-(6-methoxy-5-(4-methyl-1H-imidazol-1-yl)pyridin-2-yl)-4-methyl-5-(3-(trifluoromethyl)phenyl)-5,6-dihydro-4H-1,2,4-oxadiazine], the EC50 is 55.7 nM.

As to `COc1nc(C2=NOCC(c3cccc(C(F)(F)F)c3)N2C)ccc1-n1cnc(C)c1` (centres unmarked) [Example 30B, 3-(6-methoxy-5-(4-methyl-1H-imidazol-1-yl)pyridin-2-yl)-4-methyl-5-(3-(trifluoromethyl)phenyl)-5,6-dihydro-4H-1,2,4-oxadiazine], the 50% effective concentration (EC50) is > 3000 nM.

`COc1nc(C2=NOCC(c3cccc(C(F)(F)F)c3)N2C)ccc1-n1cnc(C)c1` (centres unmarked) [Example 213, 3-(6-methoxy-5-(4-methyl-1H-imidazol-1-yl)pyridin-2-yl)-4-methyl-5-(3-(trifluoromethyl)phenyl)-5,6-dihydro-4H-1,2,4-oxadiazine] displayed a 50% effective concentration (EC50) of 55.7 nM.

The term EC50 denotes the concentration needed to bring the measured effect to its halfway point. Higher therefore signals lower potency in that assay.
